How the values were obtained:
TrkA kinase = TrkA kinase (Homo sapiens, UniProt P04629); test: TrkA kinase assay (mobility shift assay); type: biochemical; settings: numeric values; read-out: Trk A Kinase IC50
Summary of the method: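 Caliper mobility-shift readout of FAM-labelled peptide conversion by TrkA in 50 mM HEPES pH 7.5, 0.0015% Brij-35, with ATP; enzyme preincubated 10 min with compound (10-point dilution), reaction at 28 °C, EDTA stop. Inhibition relative to DMSO and no-enzyme controls; IC50 by four-parameter fit.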

[1] = Liver microsomes metabolic stability assay, rat; type: in vitro ADME; settings: male, rat liver microsomes 0.5 mg/mL, 37° C.; for half-life at 2 μM: read-out: t1/2 Rat
Protocol: (§1) Example 203 Liver Microsomes Metabolic Stability Assay
(§2) Pooled human liver microsomes (Cat. 452117) were purchased from Corning. Pooled male rat liver microsomes (Cat. R1000) and pooled male mouse liver microsomes (Cat. M1000) were purchased from XENOTECH. Microsomes were stored at −80° C.
(§3) 1) Make a master solution containing phosphate buffer, ultra-pure H2O and MgCl2 solution according to Table 14.
(§4) 2) Two separated experiments were performed as follows.
(§5) a) With NADPH: 10 μL of 20 mg/mL liver microsomes and 40 μL of 10 mM NADPH were added to the incubations. The final concentrations of microsomes and NADPH were 0.5 mg/mL and 1 mM, respectively.
(§6) b) Without NADPH: 10 μL of 20 mg/mL liver microsomes and 40 μL of ultra-pure H2O were added to the incubations. The final concentration of microsomes was 0.5 mg/mL.
(§7) 3) The reaction was started with the addition of 4 μL test compounds solutions or control compound solution (verapamil) at the final concentration of 2 μM and carried out at 37° C.
(§8) 4) Aliquots of 50 μL were taken from the reaction solution at 0, 15, 30, 45 and 60 min. The reaction solutions were stopped by the addition of 4 volumes of cold acetonitrile with 1S (100 nM alprazolam, 200 nM caffeine, 200 nM labetalol and 2 μM ketoprofen). Samples were centrifuged at 3,220 g for 40 minutes. Aliquot of 100 μL of the supernatant was mixed with 100 μL of ultra-pure H2O and then used for LC-MS/MS analysis. All experiments were performed in duplicate.
(§9) The slope value, k, was determined by linear regression of the natural logarithm of the remaining percentage of the parent drug vs. incubation time curve.
(§10) The in vitro half-life (in vitro t1/2) was determined from the slope value:
(§11) Conversion of the in vitro t1/2 (in min) into the in vitro intrinsic clearance (in vitro CLint, in μL/min/mg proteins) was done using the following equation (mean of duplicate determinations): […]
(§12) The control compound (verapamil) was included in the assay. Any value of the compounds that was not within the specified limits will be rejected and the experiment will be repeated.

[2] = Liver microsomes metabolic stability assay, mouse; type: in vitro ADME; settings: male, mouse liver microsomes 0.5 mg/mL, 37° C.; for half-life at 2 μM: read-out: t1/2 Mouse
Protocol: as §1, §2, §3, §4, §5, §6, §7, §8, §9, §10, §11, §12

[3] = Liver microsomes metabolic stability assay, human; type: in vitro ADME; settings: human liver microsomes 0.5 mg/mL, 37° C.; for half-life at 2 μM: read-out: t1/2 Human
Protocol: as §1, §2, §3, §4, §5, §6, §7, §8, §9, §10, §11, §12

TrkA kinase, sequence (P04629 33-796): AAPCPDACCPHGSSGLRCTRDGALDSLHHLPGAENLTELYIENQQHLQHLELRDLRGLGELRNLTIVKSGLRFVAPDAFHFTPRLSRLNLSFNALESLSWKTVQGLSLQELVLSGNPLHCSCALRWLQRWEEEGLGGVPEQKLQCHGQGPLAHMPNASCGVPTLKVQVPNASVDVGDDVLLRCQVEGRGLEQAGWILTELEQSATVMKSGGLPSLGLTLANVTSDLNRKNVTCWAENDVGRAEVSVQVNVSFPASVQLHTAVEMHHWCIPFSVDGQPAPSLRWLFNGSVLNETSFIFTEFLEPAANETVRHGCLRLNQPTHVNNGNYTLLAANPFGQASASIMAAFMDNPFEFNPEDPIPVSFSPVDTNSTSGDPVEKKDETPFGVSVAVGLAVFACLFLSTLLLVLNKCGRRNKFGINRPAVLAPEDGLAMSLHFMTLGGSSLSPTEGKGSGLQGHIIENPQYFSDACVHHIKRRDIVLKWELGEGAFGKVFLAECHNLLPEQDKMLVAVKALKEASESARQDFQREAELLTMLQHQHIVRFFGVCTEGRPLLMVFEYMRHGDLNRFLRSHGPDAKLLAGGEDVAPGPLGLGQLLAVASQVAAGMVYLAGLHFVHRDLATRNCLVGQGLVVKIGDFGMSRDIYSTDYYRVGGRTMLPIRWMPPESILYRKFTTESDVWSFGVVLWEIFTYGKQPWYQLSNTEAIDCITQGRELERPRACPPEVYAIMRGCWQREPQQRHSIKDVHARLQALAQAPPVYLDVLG

Structure (SMILES)	IC50 (TrkA kinase) [nM]	microsomal CLint at 2 μM [1] [µL/min/mg]	half-life at 2 μM [1] [h]	microsomal CLint at 2 μM [2] [µL/min/mg]	half-life at 2 μM [2] [h]	microsomal CLint at 2 μM [3] [µL/min/mg]	half-life at 2 μM [3] [h]
COc1cc2[nH]c(-c3cnn4ccc(N5CCC[C@@H]5c5cc(F)ccc5F)nc34)nc2cc1Cl [Compound 112, (R)-3-(5-chloro-6-methoxy-1H-benzo[d]imidazol-2-yl)-5-(2-(2,5-difluorophenyl)pyrrolidin-1-yl)pyrazolo[1,5-a]pyrimidine]	3.2	34	0.679	27.4	0.843	16.8	1.38
Fc1ccc(F)c([C@H]2CCCN2c2ccn3ncc(-c4nc5cc(OC(F)(F)F)ccc5[nH]4)c3n2)c1 [Compound 71, (R)-5-(2-(2,5-difluorophenyl)pyrrolidin-1-yl)-3-(5-(trifluoromethoxy)-1H-benzo[d]imidazol-2-yl)pyrazolo[1,5-a]pyrimidine]	27.1	12.2	1.89	10.8	2.14	17	1.36
Fc1ccc(F)c([C@H]2CCCN2c2ccn3ncc(-c4nc5cnccc5[nH]4)c3n2)c1 [Compound 65, (R)-2-(5-(2-(2,5-difluorophenyl)pyrrolidin-1-yl)pyrazolo[1,5-a]pyrimidin-3-yl)-1H-imidazo[4,5-c]pyridine]	0.27	17.2	1.34	24	0.963	12.6	1.83
COc1cc2nc(-c3cnn4ccc(N5CCC[C@@H]5c5cc(F)ccc5F)nc34)[nH]c2cc1C(=O)O [Compound 90, (R)-2-(5-(2-(2,5-difluorophenyl)pyrrolidin-1-yl)pyrazolo[1,5-a]pyrimidin-3-yl)-5-methoxy-1H-benzo[d]imidazole-6-carboxylic acid]	0.44	1.4	16.5	0.8	28.9	5.6	4.12
Fc1ccc(F)c([C@H]2CCCN2c2ccn3ncc(-c4nc5cc(Cl)c(OC(F)(F)F)cc5[nH]4)c3n2)c1 [Compound 92, (R)-3-(5-chloro-6-(trifluoromethoxy)-1H-benzo[d]imidazol-2-yl)-5-(2-(2,5-difluorophenyl)pyrrolidin-1-yl)pyrazolo[1,5-a]pyrimidine]	20.7	10.2	2.26	5.6	4.12	20.4	1.13
Fc1ccc(F)c([C@H]2CCCN2c2ccn3ncc(-c4nc5ccc(F)cc5[nH]4)c3n2)c1 [Compound 74, (R)-5-(2-(2,5-difluorophenyl)pyrrolidin-1-yl)-3-(6-fluoro-1H-benzo[d]imidazol-2-yl)pyrazolo[1,5-a]pyrimidine]	0.96						

The remaining lines, values ahead:

IC50 (TrkA kinase) [nM]	microsomal CLint at 2 μM [1] [µL/min/mg]	half-life at 2 μM [1] [h]	microsomal CLint at 2 μM [2] [µL/min/mg]	half-life at 2 μM [2] [h]	microsomal CLint at 2 μM [3] [µL/min/mg]	half-life at 2 μM [3] [h]	Structure (SMILES)
0.66	22.2	1.04	15.6	1.48	21.2	1.09	Fc1ccc(F)c([C@H]2CCCN2c2ccn3ncc(-c4nc5cnncc5[nH]4)c3n2)c1 [Compound 76, (R)-2-(5-(2-(2,5-difluorophenyl)pyrrolidin-1-yl)pyrazolo[1,5-a]pyrimidin-3-yl)-1H-imidazo[4,5-d]pyridazine]
1.56	4.6	5.02	12.4	1.86	3.2	7.22	Fc1ccc(F)c([C@H]2CCCN2c2ccn3ncc(-c4nnc(-c5ccc(N6CCNCC6)cc5)[nH]4)c3n2)c1 [Compound 40, (R)-5-(2-(2,5-difluorophenyl)pyrrolidin-1-yl)-3-(5-(4-(piperazin-1-yl)phenyl)-4H-1,2,4-triazol-3-yl)pyrazolo[1,5-a]pyrimidine]
0.7	29.4	0.786	32	0.722	37	0.624	Fc1ccc(F)c([C@H]2CCCN2c2ccn3ncc(-c4nc5cc6c(cc5[nH]4)OCCO6)c3n2)c1 [Compound 96, (R)-2-(5-(2-(2,5-difluorophenyl)pyrrolidin-1-yl)pyrazolo[1,5-a]pyrimidin-3-yl)-6,7-dihydro-1H-[1,4]dioxino[2′,3′:4,5]benzo[1,2-d]imidazole]
23.6	7	3.3	8.4	2.75	2.4	9.62	Fc1ccc(F)c([C@H]2CCCN2c2ccn3ncc(-c4nc5ccc(OC(F)(F)F)cc5o4)c3n2)c1 [Compound 80, (R)-2-(5-(2-(2,5-difluorophenyl)pyrrolidin-1-yl)pyrazolo[1,5-a]pyrimidin-3-yl)-6-(trifluoromethoxy)benzo[d]oxazole]
1.14	19.2	1.2	4.6	5.02	4.4	5.25	Fc1ccc(F)c([C@H]2CCCN2c2ccn3ncc(-c4nnc(-c5ccc6c(c5)CCNC6)[nH]4)c3n2)c1 [Compound 36, (R)-6-(5-(5-(2-(2,5-difluorophenyl)pyrrolidin-1-yl)pyrazolo[1,5-a]pyrimidin-3-yl)-4H-1,2,4-triazol-3-yl)-1,2,3,4-tetrahydroisoquinoline]
11.9	10.8	2.14	10	2.31	10.2	2.26	Fc1ccc(F)c([C@H]2CCCN2c2ccn3ncc(-c4nc5cc6c(cc5[nH]4)OC(F)(F)O6)c3n2)c1 [Compound 79, (R)-6-(5-(2-(2,5-difluorophenyl)pyrrolidin-1-yl)pyrazolo[1,5-a]pyrimidin-3-yl)-2,2-difluoro-5H-[1,3]dioxolo[4′,5′:4,5]benzo[1,2-d]imidazole]
2.6	40.5	0.57	25.9	0.892	23	1	C[C@@](O)(c1nnc(-c2cnn3ccc(N4CCC[C@@H]4c4cc(F)ccc4F)nc23)[nH]1)C(F)(F)F [Compound 26, (R)-2-(5-(5-((R)-2-(2,5-difluorophenyl)pyrrolidin-1-yl)pyrazolo[1,5-a]pyrimidin-3-yl)-4H-1,2,4-triazol-3-yl)-1,1,1-trifluoropropan-2-ol]
1.4							CC(O)(Cc1nnc(-c2cnn3ccc(N4CCC[C@@H]4c4cc(F)ccc4F)nc23)[nH]1)C(F)(F)F (stereo partly drawn) [Compound 29, 3-(5-(5-((R)-2-(2,5-difluorophenyl)pyrrolidin-1-yl)pyrazolo[1,5-a]pyrimidin-3-yl)-4H-1,2,4-triazol-3-yl)-1,1,1-trifluoro-2-methylpropan-2-ol]
